Source: patent publication US20210290676A1, “IMPROVING THE EFFICACY AND SAFETY OF ADOPTIVE CELLULAR THERAPIES” (University of Southern California, priority 2018, published 2021)

Columns and labels:
Assay type in all cases: cell-based, human
[1] = tested on: Pgp+ (DiOC2(3)-dye effluxing) T cells; assay: DiOC2(3) dye efflux flow cytometry of inhibitor-treated T cells; details: treatment for 13 days, IL2 + CD3 and CD28 antibodies
Method: (§1) The use of P-glycoprotein (Pgp)-mediated efflux of DiOC2(3) to isolate stem like T cells for adoptive cellular therapy has been described in application no. […] In the following examples, DiOC2(3) staining was used to study the effect of different inhibitors on generation of stem like T cells.
(§2) DAY 0: Blood was obtained from unidentified donor. After RBC lysis, PBMC were collected using Ficoll-Hypaque separation. […] T cells were cultured in three different conditions: • 1. XVIVO 15 medium (Lonza) with IL2 50 IU/ml, CD3 antibody (30 ng/ml) and CD28 antibody (30 ng/ml). • 2. XVIVO 15 medium (Lonza) with CD3 antibody (30 ng/ml) and CD28 antibody (30 ng/ml). • 3. XVIVO 15 medium (Lonza) with IL2 50 IU/ml DAY 1: Cells were plated in a 6-well plate at a density of 1 million cells in 2 ml/of media (as described above) and treated with different inhibitors
(§3) The cell growth medium was changed in 6-well plates and fresh drugs were added at same concentration for one more week.
(§4) […] (DAY 11): Culture medium was changed and fresh drugs were added in 6-well plates.
(§5) Subsequently, cells were washed with RPMI medium and dye was effluxed at 37° C. for 90 min. Cells were washed with […], stained with CD62L-APC (5 μl/100 μl/sample) at 4° C. for 1 h, washed twice with PBS+1% FBS and analyzed on flow cytometer to check if these drugs treatment leads to increase in Pgp+/CD62L positive population.
(§6) Day 0: Blood was obtained from unidentified donor. After RBC lysis, PBMC were collected using Ficoll-Hypaque separation. 200 million T cells were isolated from PBMCs using CD3 microbeads. T cells were cultured overnight in XVIVO 15 medium (Lonza) with IL2 (50 IU/ml), 30 ng/ml of CD3 and CD28 antibodies
(§7) Day 1: Cells were plated in 24-well plates at a density of 0.3 million cells/ml in each well and treated with different drugs.
(§8) On day 7, culture medium was replaced with fresh medium with fresh drugs.
(§9) On day 13, culture medium was replaced with fresh medium and fresh drugs. Half of the cells were transferred to 6-well plates.
(§10) Day 14: An aliquot of cells with all the treatments listed above (for 13 days) was used to stain the cells with DiOC2(3) (60 ng/ml in RPMI medium) at 4° C. for 40 min, washed with RPMI medium, DiOC2(3) dye was effluxed at 37° C. for 90 min, washed with PBS+1% FBS, stained with CD62L-APC antibody. CD62L is a marker for resting T cells. (5 μl/100 μl/sample) at 4° C. for 1 h, washed twice with PBS+1% FBS and analyzed on flow cytometer to check if these drugs are affecting the dye-effluxing or Pgp+ (i.e., DiOC2(3)-dull) T-cell population.

[2] = tested on: CD45RA+CCR7+CD62L+ T cells; assay: Flow cytometry for CD45RA, CCR7 and CD62L on inhibitor-treated T cells (all T cells); details: cells cultured for 14 days
Method: as §2
(§11) A second aliquot of the cells cultured for 13 days with all the treatments listed above (1-21) was washed with PBS+1% FBS, stained with CD8-PerCP, CD45RA-FITC, CCR7-PE and CD62L-APC ([…] for each of 4 antibodies) at 4° C. for 1 h, washed twice with […] and analyzed on flow cytometer to check if these drugs are enriching T stem cells showing surface expression of CD8+CD45RA+CCR7+CD62L+.
as §6, §7, §8, §9
(§12) A second aliquot of the cells cultured for 14 days with all the treatments listed above was washed with PBS+1% FBS, stained with CD8-PerCP, CD45RA-FITC, CCR7-PE and CD62L-APC (5 ul/100 ul/sample for each of 4 antibodies) at 4° C. for 1 h, washed twice with PBS+1% FBS and analyzed on flow cytometer to check if these drugs are enriching for T cells showing surface expression of CD8+CD45RA+CCR7+CD62L+.

[3] = tested on: Pgp+ (DiOC2(3)-dye effluxing cells) and CD62L+ T cells; assay: DiOC2(3) dye efflux plus CD62L-APC staining, flow cytometry of inhibitor-treated T cells; details: treatment for 13 days, IL2 + CD3 and CD28 antibodies
Method: as §1, §2, §3, §4, §5, §6, §7, §8, §9, §10

[4] = tested on: CD8+CD45RA+CCR7+CD62L+ T cells; assay: Flow cytometry for CD8, CD45RA, CCR7 and CD62L on inhibitor-treated T cells; details: cells cultured for 14 days
Method: as §2, §11, §6, §7, §8, §9, §12

Row | SMILES | p2: pgp+ from Live cells ([1]; 500 nM) | p2: pgp+ from Live cells ([1]; 1 μM) | GATE P6 CD45RA(FITC)+, CCR7 (PE)+, CD62L(APC) ([2]; 500 nM) [%] | GATE P6 CD45RA(FITC)+, CCR7 (PE)+, CD62L(APC) ([2]; 1 μM) [%] | p5: double +ve pgp+ and CD62L-APC+ from Live cells ([3]; 500 nM) | p5: double +ve pgp+ and CD62L-APC+ from Live cells ([3]; 1 μM) | GATE P4 CD8(PerCP)+, CD45RA(FITC)+, CCR7 (PE)+, CD62L(APC) ([4]; 500 nM) [%] | GATE P4 CD8(PerCP)+, CD45RA(FITC)+, CCR7 (PE)+, CD62L(APC) ([4]; 1 μM) [%] | p2: pgp+ from Live cells ([1]; 100 nM) | GATE P6 CD45RA(FITC)+, CCR7 (PE)+, CD62L(APC) ([2]; 100 nM) [%] | p5: double +ve pgp+ and CD62L-APC+ from Live cells ([3]; 100 nM) | GATE P4 CD8(PerCP)+, CD45RA(FITC)+, CCR7 (PE)+, CD62L(APC) ([4]; 100 nM) [%]
1 | CCn1cc(-c2cccc(C(F)(F)F)c2)c2sc(C(=N)NC3CCS(=O)(=O)CC3)cc2c1=O [IBRD9] | 21.12 | 31.69 | 61.53 | 67.77 | 4.51 | 7.26 | 74.3 | 79.18 |  |  |  | 
2 | Cc1ccc(Cl)c(Nc2ccccc2C(=O)O)c1Cl [MECLO] | 20.11 |  | 66.64 |  | 3.72 |  | 75.78 |  | 22.22 | 53.02 | 3.74 | 57.65
